# Assay results reported in patent US20100074896A1, “ANTAGONISTS OF PGE2 EP3 RECEPTORS” (The Johns Hopkins University, priority 2006, published 2010).
# How the values were obtained:
# EP3 receptor = biological target: T1, EP3 receptor (Mus musculus, UniProt P30557); conditions: cited from earlier work; for Ki: read-out: Affinity for the EP3 receptor
# T1 sequence (P30557 1-365): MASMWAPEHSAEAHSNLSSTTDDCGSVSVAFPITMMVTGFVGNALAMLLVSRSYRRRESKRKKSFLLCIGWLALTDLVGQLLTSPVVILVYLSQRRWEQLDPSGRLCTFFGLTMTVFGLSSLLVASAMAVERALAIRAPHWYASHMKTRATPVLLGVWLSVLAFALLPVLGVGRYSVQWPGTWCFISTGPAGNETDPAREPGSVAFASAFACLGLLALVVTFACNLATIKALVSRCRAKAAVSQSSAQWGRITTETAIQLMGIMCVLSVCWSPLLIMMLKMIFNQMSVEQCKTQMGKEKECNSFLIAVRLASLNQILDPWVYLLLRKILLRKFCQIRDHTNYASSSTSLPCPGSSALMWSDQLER
# [1] = system: mouse model of middle cerebral artery (MCA) occlusion; experiment: MCAO (90 min) and reperfusion, hemispheric infarct volume; assay type: in vivo; conditions: 90 min occlusion, 4 days reperfusion
# Method: (§1) Mice were anesthetized with 3.0% halothane and maintained with 1.0-1.5% continuous flow of halothane in oxygen-enriched air. Then the mice were mounted on a stereotactic frame and injected with 0.2 μl of different doses of ONO-AE-248 (0.5 nmol, 2.5 nmol, or 5.0 nmol) or vehicle (DMSO) via a 1μl Hamilton syringe (Reno, Nev.) into the right lateral ventricle as described previously (Ahmad et al., 2006a). After the injection, the needle was retracted slowly, the hole was plugged with bone wax, and the wound was sutured. Mice were then either transferred to another setup for the MCAO procedure or left in place for NMDA injection (see below).
# During the MCAO procedure (FIG. 1, Illustration A), mouse rectal temperature was monitored and maintained at 37.0±0.5° C. by a heating pad, and anesthesia was maintained with continuous flow of halothane in oxygen-enriched air via a nose cone. Relative CBF was monitored with laser-Doppler flowmetry (Moor Instruments, Devon, England) by a flexible fiber optic probe affixed to the skull over the parietal cortex supplied by the MCA (2 mm posterior and 6 mm lateral to the bregma). MCAO was carried out under aseptic conditions with a silicone-coated nylon monofilament as described previously (Shah et al., 2006). […]
# Four days after MCAO surgery, mice (n=9/dose) were deeply anesthetized, and their brains were harvested and sliced coronally into five 2-mm-thick sections. […] The area of infarcted brain, identified by the lack of TTC staining, was measured on the rostral and caudal surfaces of each slice and numerically integrated across the thickness of the slice to obtain an estimate of infarct volume in each slice (SigmaScan Pro, SPSS, Port Richmond, Calif., USA). Volumes from all five slices were summed to calculate total infarct volume over the entire hemisphere and expressed as a percentage of the volume of the contralateral structure. […] The corrected infarct volume was calculated as: volume of contralateral hemisphere−(volume of ipsilateral hemisphere−volume of infarct).
# mice [2] = experiment: Core body temperature by intra-abdominal radiofrequency probe; assay type: in vivo, mouse; conditions: mice without MCAO, room temperature, 4-day experiment
# Method: A third cohort of mice was implanted with intra-abdominal radiofrequency probes [IPTT-200, Bio. Medic. Data System (BMDS), Seaford, Del.] 7 days before injection of ONO-AE-248 (n=5) or vehicle (n=5). Core temperature was sampled every 10 min for the first 90 min after injection, and then once daily for 4 days at room temperature via receivers (The DAS-5002 Notebook System™; BMDS). This telemetry system minimizes stress and allows temperature control and monitoring in freely moving animals.
# rats = conditions: single ICV injection, 20 nmol; cited from earlier work
# [3] = system: NMDA-induced brain lesion in C57B1/6 WT mice; experiment: NMDA-induced brain lesion volume (excitotoxicity); assay type: in vivo, mouse; conditions: 15 nmol NMDA intrastriatal, 48 h
# Method: as §1
# To investigate the effect of NMDA toxicity in mice lacking the EP3 receptor, WT (n=7) and EP3-/- (n=8) mice were injected in the right striatum with 15 nmol NMDA or vehicle in a volume of 0.3 μl 20 min after being injected with ONO-AE-248, as reported earlier (Ahmad et al., 2006a). After injection, the hole was blocked and the wound sutured, as described above. After the surgical procedures, the animals were transferred to a temperature-regulated chamber to recover from anesthesia. Throughout the stereotactic procedures the rectal temperature of mice was monitored and maintained at 37.0±0.5° C.
# At 48 h after NMDA injection, weight and rectal temperature of each mouse was recorded. Then, mice were transcardially perfused with phosphate-buffered saline, followed by 4% paraformaldehyde (pH 7.2), under deep anesthesia. Brains were immediately removed, post-fixed in paraformaldehyde overnight, cryoprotected in sucrose (30%) for 3 days, and frozen in 2-methyl butane (pre-cooled over dry ice). Brain sections cut on a cryostat were collected on microscope slides and stained with Cresyl Violet to estimate lesion volume. Images of the brain sections were taken and analyzed with SigmaScan Pro 5.0 software (Systat Software Inc., Richmond, Calif.) as described previously (Ahmad et al., 2006b).
# EP3 = conditions: CHO cell lines; cited from earlier work
# mice [4] = experiment: Analysis of physiological parameters (arterial blood pH, PaO2, PaCO2, MABP) around MCAO; assay type: in vivo, mouse; conditions: before ischemia, during ischemia, during reperfusion; all doses
# Method: Measurement of physiological parameters was carried out in a group of mice separate from that used to assess infarct volume (FIG. 1, Illustration B). Arterial blood samples collected via femoral catheter were analyzed for pH, PaO2, and PaCO2 before the occlusion, during occlusion, and 1 h after the occlusion. MABP was measured at the same time points by a pressure transducer connected to the femoral catheter.
# EP1 receptor = biological target: T2, EP1 receptor (Mus musculus, UniProt P35375); conditions: read-out: Affinity for the EP1 receptor; cited from earlier work
# T2 sequence (P35375 1-405): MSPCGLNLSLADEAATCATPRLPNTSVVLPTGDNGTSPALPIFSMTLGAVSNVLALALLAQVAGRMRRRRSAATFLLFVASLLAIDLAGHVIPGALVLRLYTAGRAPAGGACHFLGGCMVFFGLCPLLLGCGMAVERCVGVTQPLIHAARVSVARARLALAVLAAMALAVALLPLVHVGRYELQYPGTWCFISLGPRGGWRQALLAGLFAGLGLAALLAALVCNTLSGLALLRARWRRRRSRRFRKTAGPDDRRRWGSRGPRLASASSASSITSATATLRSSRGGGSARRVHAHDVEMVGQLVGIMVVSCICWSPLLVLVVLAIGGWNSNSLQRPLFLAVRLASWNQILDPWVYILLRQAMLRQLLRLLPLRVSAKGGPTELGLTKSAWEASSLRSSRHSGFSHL
Compound,Specificity for EP3 over EP1 (EP3 receptor; EP3 versus EP1),"Infarct volume increase as compared with the vehicle-treated group ([1]; 0.5 nmol ICV before MCAO, not statistically significant)","Infarct volume increase as compared with the vehicle-treated group ([1]; 2.5 nmol ICV before MCAO, statistically significant)","Infarct volume increase as compared with the vehicle-treated group ([1]; 5.0 nmol ICV before MCAO, statistically significant)",Effect on core body temperature (mice [2]),Effect on body temperature (rats),Effect on NMDA-induced toxicity ([3]; 0.5 nmol ICV pretreatment),"Effect on NMDA-induced lesion size ([3]; 2.5 nmol ICV pretreatment, p<0.02)","Effect on NMDA-induced lesion size ([3]; 5 nmol ICV pretreatment, p<0.001)",Effect on forskolin-induced increase in cAMP (EP3),MABP versus vehicle group (mice [4]),PaCO2 versus vehicle group (mice [4]),PaO2 versus vehicle group (mice [4]),pH (arterial blood) versus vehicle group (mice [4]),Ki (EP3 receptor),Ki (EP1 receptor)
CCCCC[C@@H](/C=C/[C@H]1[C@H](OC)CC(=O)[C@@H]1C/C=C\CCCC(=O)O)OC [ONO-AE-248],1333 times,17%,34%,38%,did not affect core body temperature,mild hyperthermia was induced,did not affect,significantly and dose-dependently increased,significantly and dose-dependently increased,prevented the forskolin-induced increase in cAMP,No statistically significant differences,No statistically significant differences,No statistically significant differences,No statistically significant differences,–,–
O=C(O)CCC/C=C\C[C@H]1C(=O)C[C@@H](O)[C@@H]1/C=C/[C@@H](O)CCc1ccccc1 [17-phenyl trinor PGE2],–,–,–,–,–,–,–,–,–,–,–,–,–,–,21 nM,14 nM
CS(=O)(=O)NC(=O)CCC/C=C\C[C@H]1C(=O)C[C@@H](O)[C@@H]1/C=C/[C@@H](O)COc1ccccc1 [sulprostone],–,–,–,–,–,–,–,–,–,–,–,–,–,–,0.6 nM,4 nM
